Results published in US12077503B2, “Substituted cyclic amides and their use as herbicides” (FMC CORPORATION, priority 2015, dated 2024).

Tests used:
Type in all cases: in vivo
[1] = tested on: redroot pigweed (Amaranthus retroflexus); experiment: Test G Post-Emergence Protocol; conditions: Amaranthus retroflexus, post-emergence, 312 h; for pest or weed control at 15.625 g/ha: 15.625 g ai/ha, evaluated after 13 days (100=total damage to plant; 0=no damage to plant), read-out: Pigweed, Redroot damage rating; for pest or weed control at 62.5 g/ha: 62.5 g ai/ha, read-out: Pigweed, Redroot damage rating (100=total damage to plant; 0=no damage to plant); for pest or weed control at 62.5 g/ha / pest or weed control at 250 g/ha: evaluated after 13 days; for pest or weed control at 250 g/ha: 250 g ai/ha, read-out: damage to plant, Pigweed, Redroot (100=total damage to plant; 0=no damage to plant)
Method in brief: (§1)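 Damage was rated 13 days after treatment from 0 (none) to 100 (plant killed). Compound was applied as a spray at 15.625, 62.5 or 250 g/ha in 50:50 acetone/water containing 0.5% Tween 20, onto 8-day-old potted plants kept in a glasshouse (24/16 °C, 14 h light, 65% humidity).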

corn (Zea mays) [2] = experiment: Test G Post-Emergence Protocol; conditions: Zea mays, post-emergence, 312 h; for plant injury at 15.625 g/ha: 15.625 g ai/ha, evaluated after 13 days (100=total damage to plant; 0=no damage to plant), read-out: Corn damage rating; for plant injury at 62.5 g/ha: 62.5 g ai/ha, read-out: Corn damage rating (100=total damage to plant; 0=no damage to plant); for plant injury at 62.5 g/ha / plant injury at 250 g/ha: evaluated after 13 days; for plant injury at 250 g/ha: 250 g ai/ha, read-out: damage to plant, Corn (100=total damage to plant; 0=no damage to plant)
Method in brief: as §1

[3] = tested on: ivy-leaved morning glory (Ipomoea hederacea); experiment: Test G Post-Emergence Protocol; conditions: Ipomoea, post-emergence, 312 h; for pest or weed control at 15.625 g/ha: 15.625 g ai/ha, evaluated after 13 days (100=total damage to plant; 0=no damage to plant), read-out: Morningglory, Ivy-leaved damage rating; for pest or weed control at 62.5 g/ha: 62.5 g ai/ha, read-out: Morningglory, Ivy-leaved damage rating (100=total damage to plant; 0=no damage to plant); for pest or weed control at 62.5 g/ha / pest or weed control at 250 g/ha: evaluated after 13 days; for pest or weed control at 250 g/ha: 250 g ai/ha, read-out: damage to plant, Morningglory, Ivy-leaved (100=total damage to plant; 0=no damage to plant)
Method in brief: as §1

[4] = tested on: giant foxtail (Setaria faberi); experiment: Test G Post-Emergence Protocol; conditions: Setaria faberi, post-emergence, 312 h; for pest or weed control at 15.625 g/ha: 15.625 g ai/ha, evaluated after 13 days (100=total damage to plant; 0=no damage to plant), read-out: Foxtail, Giant damage rating; for pest or weed control at 62.5 g/ha: 62.5 g ai/ha, read-out: Foxtail, Giant damage rating (100=total damage to plant; 0=no damage to plant); for pest or weed control at 62.5 g/ha / pest or weed control at 250 g/ha: evaluated after 13 days; for pest or weed control at 250 g/ha: 250 g ai/ha, read-out: damage to plant, Foxtail, Giant (100=total damage to plant; 0=no damage to plant)
Method in brief: as §1

[5] = tested on: barnyardgrass (Echinochloa crus-galli); experiment: Test G Post-Emergence Protocol; conditions: Echinochloa crus-galli, post-emergence, 312 h; for pest or weed control at 15.625 g/ha: 15.625 g ai/ha, evaluated after 13 days (100=total damage to plant; 0=no damage to plant), read-out: Barnyardgrass damage rating; for pest or weed control at 62.5 g/ha: 62.5 g ai/ha, read-out: Barnyardgrass damage rating (100=total damage to plant; 0=no damage to plant); for pest or weed control at 62.5 g/ha / pest or weed control at 250 g/ha: evaluated after 13 days; for pest or weed control at 250 g/ha: 250 g ai/ha, read-out: damage to plant, Barnyardgrass (100=total damage to plant; 0=no damage to plant)
Method in brief: as §1

[6] = tested on: velvetleaf (Abutilon theophrasti); experiment: Test G Post-Emergence Protocol; conditions: Abutilon theophrasti, post-emergence, 312 h; for pest or weed control at 15.625 g/ha: 15.625 g ai/ha, evaluated after 13 days (100=total damage to plant; 0=no damage to plant), read-out: Velvetleaf damage rating; for pest or weed control at 62.5 g/ha: 62.5 g ai/ha, read-out: Velvetleaf damage rating (100=total damage to plant; 0=no damage to plant); for pest or weed control at 62.5 g/ha / pest or weed control at 250 g/ha: evaluated after 13 days; for pest or weed control at 250 g/ha: 250 g ai/ha, read-out: damage to plant, Velvetleaf (100=total damage to plant; 0=no damage to plant)
Method in brief: as §1

[7] = tested on: redroot pigweed (Amaranthus retroflexus); experiment: Test G Pre-Emergence Protocol; conditions: Amaranthus retroflexus, pre-emergence, 312 h, evaluated after 13 days; for pest or weed control at 15.625 g/ha: 15.625 g ai/ha; for pest or weed control at 15.625 g/ha / pest or weed control at 250 g/ha: read-out: Pigweed, Redroot damage rating (100=total damage to plant; 0=no damage to plant); for pest or weed control at 62.5 g/ha: 62.5 g ai/ha, 100=total damage to plant, 0=no damage to plant, read-out: plant damage rating, Pigweed, Redroot; for pest or weed control at 250 g/ha: 250 g ai/ha
Method in brief: (§2)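 Visual injury (0–100) at day 13 after a single pre-emergence spray. Rates: 15.625, 62.5, 250 g/ha in acetone–water 50:50 with 0.5% Tween 20. Growth conditions: 24/16° C, 14 h light, 65% humidity.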

corn (Zea mays) [8] = experiment: Test G Pre-Emergence Protocol; conditions: Zea mays, pre-emergence, 312 h, evaluated after 13 days; for plant injury at 15.625 g/ha: 15.625 g ai/ha; for plant injury at 15.625 g/ha / plant injury at 250 g/ha: read-out: Corn damage rating (100=total damage to plant; 0=no damage to plant); for plant injury at 62.5 g/ha: 62.5 g ai/ha, 100=total damage to plant, 0=no damage to plant, read-out: plant damage rating, Corn; for plant injury at 250 g/ha: 250 g ai/ha
Method in brief: as §2

[9] = tested on: ivy-leaved morning glory (Ipomoea hederacea); experiment: Test G Pre-Emergence Protocol; conditions: Ipomoea, pre-emergence, 312 h, evaluated after 13 days; for pest or weed control at 15.625 g/ha: 15.625 g ai/ha, read-out: Morning-glory, Ivy-leaved damage rating (100=total damage to plant; 0=no damage to plant); for pest or weed control at 62.5 g/ha: 62.5 g ai/ha, 100=total damage to plant, 0=no damage to plant, read-out: plant damage rating, Morningglory, Ivy-leaved; for pest or weed control at 250 g/ha: 250 g ai/ha, read-out: Morningglory, Ivy-leaved damage rating (100=total damage to plant; 0=no damage to plant)
Method in brief: as §2

[10] = tested on: giant foxtail (Setaria faberi); experiment: Test G Pre-Emergence Protocol; conditions: Setaria faberi, pre-emergence, 312 h, evaluated after 13 days; for pest or weed control at 15.625 g/ha: 15.625 g ai/ha; for pest or weed control at 15.625 g/ha / pest or weed control at 250 g/ha: read-out: Foxtail, Giant damage rating (100=total damage to plant; 0=no damage to plant); for pest or weed control at 62.5 g/ha: 62.5 g ai/ha, 100=total damage to plant, 0=no damage to plant, read-out: plant damage rating, Foxtail, Giant; for pest or weed control at 250 g/ha: 250 g ai/ha
Method in brief: as §2

[11] = tested on: barnyardgrass (Echinochloa crus-galli); experiment: Test G Pre-Emergence Protocol; conditions: Echinochloa crus-galli, pre-emergence, 312 h, evaluated after 13 days; for pest or weed control at 15.625 g/ha: 15.625 g ai/ha, read-out: Barnyard grass damage rating (100=total damage to plant; 0=no damage to plant); for pest or weed control at 62.5 g/ha: 62.5 g ai/ha, 100=total damage to plant, 0=no damage to plant, read-out: plant damage rating, Barnyardgrass; for pest or weed control at 250 g/ha: 250 g ai/ha, read-out: Barnyardgrass damage rating (100=total damage to plant; 0=no damage to plant)
Method in brief: as §2

[12] = tested on: velvetleaf (Abutilon theophrasti); experiment: Test G Pre-Emergence Protocol; conditions: Abutilon theophrasti, pre-emergence, 312 h, evaluated after 13 days; for pest or weed control at 15.625 g/ha: 15.625 g ai/ha; for pest or weed control at 15.625 g/ha / pest or weed control at 250 g/ha: read-out: Velvetleaf damage rating (100=total damage to plant; 0=no damage to plant); for pest or weed control at 62.5 g/ha: 62.5 g ai/ha, 100=total damage to plant, 0=no damage to plant, read-out: plant damage rating, Velvetleaf; for pest or weed control at 250 g/ha: 250 g ai/ha
Method in brief: as §2

Compound | pest or weed control at 15.625 g/ha [1] | pest or weed control at 62.5 g/ha [1] | pest or weed control at 250 g/ha [1] | plant injury at 15.625 g/ha (corn (Zea mays) [2]) | plant injury at 62.5 g/ha (corn (Zea mays) [2]) | plant injury at 250 g/ha (corn (Zea mays) [2]) | pest or weed control at 15.625 g/ha [3] | pest or weed control at 62.5 g/ha [3] | pest or weed control at 250 g/ha [3] | pest or weed control at 15.625 g/ha [4] | pest or weed control at 62.5 g/ha [4] | pest or weed control at 250 g/ha [4] | pest or weed control at 15.625 g/ha [5] | pest or weed control at 62.5 g/ha [5] | pest or weed control at 250 g/ha [5] | pest or weed control at 15.625 g/ha [6] | pest or weed control at 62.5 g/ha [6] | pest or weed control at 250 g/ha [6] | pest or weed control at 15.625 g/ha [7] | pest or weed control at 62.5 g/ha [7] | further results
C[C@@]1(C(=O)Nc2cccc(F)c2F)C(=O)NC[C@@H]1c1ccc(C(F)(F)F)cc1 (racemic) [Compound 1405] | 0% | 0% | 0% | 0% | 0% | 0% | 0% | 0% | 0% | 0% | 0% | 0% | 0% | 0% | 0% | 0% | 0% | 0% | 0% | 0% | pest or weed control at 250 g/ha [7]: 0%; plant injury at 15.625 g/ha (corn (Zea mays) [8]): 0%; plant injury at 62.5 g/ha (corn (Zea mays) [8]): 0%; plant injury at 250 g/ha (corn (Zea mays) [8]): 0%; pest or weed control at 15.625 g/ha [9]: 0%; pest or weed control at 62.5 g/ha [9]: 0%; pest or weed control at 250 g/ha [9]: 0%; pest or weed control at 15.625 g/ha [10]: 0%; pest or weed control at 62.5 g/ha [10]: 0%; pest or weed control at 250 g/ha [10]: 0%; pest or weed control at 15.625 g/ha [11]: 0%; pest or weed control at 62.5 g/ha [11]: 0%; pest or weed control at 250 g/ha [11]: 0%; pest or weed control at 15.625 g/ha [12]: 0%; pest or weed control at 62.5 g/ha [12]: 0%; pest or weed control at 250 g/ha [12]: 0%
CN1C[C@H](c2ccc(C(C)(C)C#N)cc2)[C@@H](C(=O)Nc2ccccc2F)C1=O (racemic) [Compound 1408] | 0% | 0% | 0% | 0% | 0% | 20% | 0% | 0% | 20% | 0% | 0% | 60% | 0% | 0% | 40% | 0% | 0% | 10% | 0% | 0% | pest or weed control at 250 g/ha [7]: 10%; plant injury at 15.625 g/ha (corn (Zea mays) [8]): 0%; plant injury at 62.5 g/ha (corn (Zea mays) [8]): 0%; plant injury at 250 g/ha (corn (Zea mays) [8]): 10%; pest or weed control at 15.625 g/ha [9]: 0%; pest or weed control at 62.5 g/ha [9]: 0%; pest or weed control at 250 g/ha [9]: 0%; pest or weed control at 15.625 g/ha [10]: 0%; pest or weed control at 62.5 g/ha [10]: 20%; pest or weed control at 250 g/ha [10]: 70%; pest or weed control at 15.625 g/ha [11]: 0%; pest or weed control at 62.5 g/ha [11]: 0%; pest or weed control at 250 g/ha [11]: 20%; pest or weed control at 15.625 g/ha [12]: 0%; pest or weed control at 62.5 g/ha [12]: 0%; pest or weed control at 250 g/ha [12]: 0%
CN1C[C@H](c2ccc(C(C)(C)C)cc2)[C@@H](C(=O)Nc2ccccc2F)C1=O (racemic) [Compound 1409] | 0% | 0% | 10% | 0% | 0% | 10% | 0% | 0% | 0% | 0% | 0% | 40% | 0% | 10% | 30% | 0% | 0% | 10% | 0% | 0% | pest or weed control at 250 g/ha [7]: 0%; plant injury at 15.625 g/ha (corn (Zea mays) [8]): 0%; plant injury at 62.5 g/ha (corn (Zea mays) [8]): 0%; plant injury at 250 g/ha (corn (Zea mays) [8]): 0%; pest or weed control at 15.625 g/ha [9]: 0%; pest or weed control at 62.5 g/ha [9]: 0%; pest or weed control at 250 g/ha [9]: 0%; pest or weed control at 15.625 g/ha [10]: 0%; pest or weed control at 62.5 g/ha [10]: 0%; pest or weed control at 250 g/ha [10]: 40%; pest or weed control at 15.625 g/ha [11]: 0%; pest or weed control at 62.5 g/ha [11]: 0%; pest or weed control at 250 g/ha [11]: 10%; pest or weed control at 15.625 g/ha [12]: 0%; pest or weed control at 62.5 g/ha [12]: 0%; pest or weed control at 250 g/ha [12]: 0%
